Results on seven compounds are retold here after patent US20160227778A1, “SEED DRESSING FOR CONTROLLING PHYTOPATHOGENIC FUNGI” (BAYER INTELLECTUAL PROPERTY GMBH, priority 2004, published 2016).

What all share (format): in vivo
Assay [1] deals with Rhizoctonia solani. Briefly: Rhizoctonia solani test (rice)/seed treatment. The following applies: rice (cultivar Koshihikari), seed dressing, application rate 200 g/100 kg of seed, evaluated seven days after inoculation. On the procedure: Rhizoctonia solani Test (Rice)/Seed Treatment Rice seed (cultivar Koshihikari) is soaked at 15° C. in distilled water for 10 days, transferred into fresh water and, whilst being ventilated, soaked at 32° C. for 1 day. The seed is then dried at room temperature for a number of hours. 7.6 mg of the test substance are dissolved in 200 μl of acetone in a test vessel, an aliquot of seed (corresponding to 3.8 g of dry seed) is added, the samples mixed and the acetone is aspirated. The seed is sown on soil in a plastic vessel having a diameter of 7.5 cm and cultivated in an incubator at 32° C. with high atmospheric humidity in the dark for 3 days. The seedlings are then cultivated in a greenhouse at on average 21° C. for 2 weeks. In each case 5 seedlings are transferred into 5 plastic vessels having a diameter of 12 cm and cultivated in a greenhouse at on average 25° C. for 5-6 weeks. Mycelia of Rhizoctonia solani which had been grown on sterile barley corns are placed at the foot of the rice plant (5 cm from the soil surface) and incubated in a glass chamber with high atmospheric humidity at on average 27° C. Seven days after the inoculation, the degree of infection is evaluated and the efficacy is calculated. [table]

The test system of assay [2] is Rhizoctonia solani. Briefly: Rhizoctonia solani test (cotton)/seed treatment. The following applies: dry seed dressing, application rate 50 g/100 kg of seed, evaluated after 7-8 days, method of Abbot. The protocol:
Rhizoctonia solani Test (Cotton)/Seed Treatment The active compounds are applied as dry seed dressing. This is prepared by extending the active compounds in question with ground minerals to give a finely pulverulent mixture which ensures uniform distribution on the seed surface. To dress the seed, the seed together with the seed dressing is shaken for 3 minutes in a closed glass bottle. 2×50 seed corns are sown in standardized soil in seed trays. Perlite infected with Rhizoctonia solani (5 ml/seed tray) is scattered between the seed and covered with Lecaton, and the seeds are then cultivated in a greenhouse at a temperature of about 22° C. and 15 hours of light per day. After 7-8 days, all the emerged and diseased plants are evaluated. The effect is calculated by the method of Abbot. 0% means an efficacy which corresponds to that of the control, whereas an efficacy of 100% means that no infection is observed.

The test system of another assay is Ustilago nuda. Briefly: Ustilago nuda test (barley)/seed treatment/outdoor trial. The conditions noted are these: summer barley, infected seed, outdoor trial, application rate 10 g/100 kg of seed, evaluated at begin to middle of blossom. The protocol: Ustilago nuda Test (Barley)/Seed Treatment/Outdoor Trial Cereal species: Summer barley Amount of seed per plot: 40 g Plot size: 2 m^2 Number of repetitions: 3 Development stage: Begin to middle of blossom The active compounds are applied as a commercial formulation. For dressing, the preparation is initially charged in a dressing beaker and placed on a dressing shaker. The infected seed is added and shaken for about 2-3 min, until homogenization is achieved. After preparing the soil in a customary manner, outdoor sowing is carried out at a time which favours infection by the disease. Evaluation is carried out at a time when all the disease symptoms are clearly present. 0% means an efficacy which corresponds to that of the control, whereas an efficacy of 100% means that no infection is observed.

For the next assay, the system named is Pyrenophora graminea. Put plainly: Pyrenophora graminea test (barley)/seed treatment/outdoor trial. The following applies: summer barley, infected seed, outdoor trial, application rate 10 g/100 kg of seed, evaluated at begin of heading. The protocol: Pyrenophora graminea Test (Barley)/Seed Treatment/Outdoor Trial
Cereal species: Summer barley Plot size: 2 m^2 Amount of seed per plot: 40 g Number of repetitions: 3 Development stage at the time of evaluation: Begin of heading
The active compounds are applied as a commercial formulation.
For dressing, the preparation is initially charged in a dressing beaker and placed on a dressing shaker. The infected seed is added and shaken for about 2-3 min, until homogenization is achieved.
After preparing the soil in a customary manner, outdoor sowing is carried out at a time which favours infection by the disease.
Evaluation is carried out at a time when all the disease symptoms are clearly present. 0% means an efficacy which corresponds to that of the control, whereas an efficacy of 100% means that no infection is observed.

Structures are written as SMILES.

With `Cc1nn(C)c(F)c1C(=O)Nc1ccccc1C(C)CC(C)C` (stereo not shown) [drawing 50], the Efficacy in % in the assay on Rhizoctonia solani [1] was 91%.

For the compound `CC(C)CC(C)c1sccc1NC(=O)c1cn(C)nc1C(F)(F)F` (stereo not shown) [drawing 47], the Efficacy in % with Rhizoctonia solani [2] amounted to 100%.

For the compound `CC(C)CC(C)c1sccc1NC(=O)c1cn(C)nc1C(F)(F)F` (stereo not shown) [drawing 52], the Efficacy in % in the assay on Ustilago nuda turned out to be 99%.

Take `Cc1nn(C)c(F)c1C(=O)Nc1ccccc1C(C)CC(C)C` (stereo not shown) [drawing 46]: the Efficacy in % in the assay on Rhizoctonia solani [2] amounted to 100%.

Consider `CC(C)CC(C)c1sccc1NC(=O)c1cn(C)nc1C(F)(F)F` (stereo not shown) [drawing 49], for which the Efficacy in % in the assay on Pyrenophora graminea was 97%.

In the assay with Ustilago nuda, `Cc1nn(C)c(F)c1C(=O)Nc1ccccc1C(C)CC(C)C` (stereo not shown) [drawing 51] showed an Efficacy in % of 100%.

With `Cc1nn(C)c(F)c1C(=O)Nc1ccccc1C(C)CC(C)C` (stereo not shown) [drawing 48], the Efficacy in % in the assay on Pyrenophora graminea came to 97%.
